These results are taken from PubChem BioAssay AID624091 (Broad Institute, 2012).

Holding throughout (test): selectivity of inhibitors across GSK3a/b, CDKs – biochemical, selected compounds, dry powder samples, selectivity assay for GSK3beta inhibitor project, dose response (AID 624091)
Test [1] addresses Glycogen synthase kinase-3 alpha (Homo sapiens) (UniProt P49840). As to conditions: Carna mobility shift kinase assay, LabChip, panel; GSK3a.
For test [2], the target named is Glycogen synthase kinase-3 beta (Homo sapiens) (UniProt P49841). The note with it: Carna mobility shift kinase assay, LabChip, panel; GSK3b.
The target of test [3] is Cyclin-dependent kinase 1 (Homo sapiens) (UniProt P06493). The note with it: Carna mobility shift kinase assay, LabChip, panel; CDC2/CycB1.
Test [4] concerns the target Cyclin-dependent kinase 2 (Homo sapiens) (UniProt P24941). The note with it: Carna mobility shift kinase assay, LabChip, panel.
In test [5] the target is Cyclin-dependent kinase 5 (Homo sapiens) (UniProt Q00535). As to conditions: Carna mobility shift kinase assay, LabChip, panel; CDK5/p25.

Calls of active or inactive are those of the source. No rule for the calls is given here.

Glycogen synthase kinase-3 alpha (Homo sapiens), sequence (P49840 whole entry, looked up): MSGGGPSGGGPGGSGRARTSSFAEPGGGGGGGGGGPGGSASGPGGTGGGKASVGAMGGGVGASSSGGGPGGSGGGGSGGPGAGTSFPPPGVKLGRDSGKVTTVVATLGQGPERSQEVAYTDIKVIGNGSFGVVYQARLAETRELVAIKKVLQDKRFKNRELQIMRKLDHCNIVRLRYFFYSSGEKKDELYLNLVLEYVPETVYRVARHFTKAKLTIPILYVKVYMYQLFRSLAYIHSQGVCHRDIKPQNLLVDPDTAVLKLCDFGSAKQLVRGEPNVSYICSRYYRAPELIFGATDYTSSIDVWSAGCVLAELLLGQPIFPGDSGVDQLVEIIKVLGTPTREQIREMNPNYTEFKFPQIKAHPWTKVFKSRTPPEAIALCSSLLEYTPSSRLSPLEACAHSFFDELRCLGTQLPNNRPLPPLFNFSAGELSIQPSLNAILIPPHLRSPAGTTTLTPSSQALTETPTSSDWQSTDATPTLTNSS
Glycogen synthase kinase-3 beta (Homo sapiens), sequence (P49841 whole entry, looked up): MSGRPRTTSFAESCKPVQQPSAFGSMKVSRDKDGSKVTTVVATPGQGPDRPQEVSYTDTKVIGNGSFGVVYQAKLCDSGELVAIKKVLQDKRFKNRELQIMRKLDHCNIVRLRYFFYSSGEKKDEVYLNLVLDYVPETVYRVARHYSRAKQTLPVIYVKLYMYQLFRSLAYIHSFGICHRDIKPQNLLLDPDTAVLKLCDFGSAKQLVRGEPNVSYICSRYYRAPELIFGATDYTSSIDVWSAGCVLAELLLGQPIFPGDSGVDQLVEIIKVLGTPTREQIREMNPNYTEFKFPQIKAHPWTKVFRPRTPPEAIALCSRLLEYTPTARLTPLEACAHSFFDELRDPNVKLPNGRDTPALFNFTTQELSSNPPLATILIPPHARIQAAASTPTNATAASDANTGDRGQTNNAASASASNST
Cyclin-dependent kinase 5 (Homo sapiens), sequence (Q00535 whole entry, looked up): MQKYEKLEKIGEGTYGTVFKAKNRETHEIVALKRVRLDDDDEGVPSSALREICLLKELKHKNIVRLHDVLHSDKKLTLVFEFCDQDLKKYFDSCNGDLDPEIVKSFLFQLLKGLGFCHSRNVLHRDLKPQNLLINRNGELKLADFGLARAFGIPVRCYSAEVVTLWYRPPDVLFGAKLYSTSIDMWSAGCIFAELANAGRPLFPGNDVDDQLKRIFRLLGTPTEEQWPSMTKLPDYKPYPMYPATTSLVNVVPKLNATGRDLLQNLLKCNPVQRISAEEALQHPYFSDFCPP
Cyclin-dependent kinase 1 (Homo sapiens), sequence (P06493 whole entry, looked up): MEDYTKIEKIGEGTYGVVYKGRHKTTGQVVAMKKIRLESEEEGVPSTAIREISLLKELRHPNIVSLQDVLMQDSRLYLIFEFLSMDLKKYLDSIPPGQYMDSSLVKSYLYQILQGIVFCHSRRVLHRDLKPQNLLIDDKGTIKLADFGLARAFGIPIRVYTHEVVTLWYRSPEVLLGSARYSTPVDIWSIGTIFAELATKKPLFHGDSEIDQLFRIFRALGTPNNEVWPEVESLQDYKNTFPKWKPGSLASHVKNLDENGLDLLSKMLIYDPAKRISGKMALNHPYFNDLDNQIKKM

With `Cc1[nH]nc2c1[C@@H](c1ccccc1C(F)(F)F)C1=C(CC(C)(C)CC1=O)N2`, the IC50 in test [1] is 7.79 nM; in test [2], 15.5 nM; in test [3], 839 nM; in test [4] (CDK2/CycA2), 561 nM; in test [4] (CDK2/CycE1) it was 427 nM; in test [5], 127 nM.

In the case of `COc1ccccc1[C@H]1C2=C(CC(C)(C)CC2=O)Nc2n[nH]c(C(F)(F)F)c21`, the IC50 is 980 nM in test [1]; 613 nM in test [2]; > 10000 nM (inactive) in test [3]; > 10000 nM (inactive) in test [4] (CDK2/CycA2); > 10000 nM (inactive) in test [4] (CDK2/CycE1).

As for `Cc1[nH]nc2c1[C@H](c1ccccc1C(F)(F)F)C1=C(CC(C)(C)CC1=O)N2`, the IC50 result in test [1] and in test [2] was “inactive” each time. Further, the IC50 in test [3], in test [4] (CDK2/CycA2), in test [4] (CDK2/CycE1) and in test [5] was > 10000 nM (inactive) throughout.

As for `COc1ccccc1C1C2=C(CC(C)(C)CC2=O)Nc2n[nH]c(C(F)(F)F)c21` (stereo not drawn), the IC50 in test [1] was 23.4 nM; in test [2], 22.8 nM; in test [3] it was > 10000 nM (inactive). In addition, the IC50 result in test [4] (CDK2/CycA2) and in test [4] (CDK2/CycE1) was “inactive” each time.

For the compound `COc1ccccc1[C@@H]1C2=C(CC(C)(C)CC2=O)Nc2n[nH]c(C(F)(F)F)c21`, the 50% inhibitory concentration (IC50) in test [1] is 13.2 nM; in test [2] it was 12.4 nM; in test [3], > 10000 nM (inactive). In addition, the IC50 entry in test [4] (CDK2/CycA2) and in test [4] (CDK2/CycE1) was “inactive” in each case.

Consider `Cc1[nH]nc2c1C(c1ccccc1C(F)(F)F)C1=C(CC(C)(C)CC1=O)N2` (stereo not drawn), for which the IC50 in test [1] is 14.6 nM; in test [2] it was 26.8 nM; in test [4] (CDK2/CycE1) it was 808 nM; in test [5], 223 nM. For the same compound, the IC50 entry in test [3] and in test [4] (CDK2/CycA2) was “inactive” each time.
